A word on the pKa: it is the negative logarithm of the acid dissociation constant. Low readings indicate a group that gives up its proton readily, high ones a group that holds its proton tightly.

One series is described as follows: physchem. From the text: The reduction attributes of these compounds are subject to pH conditions, specifically, in the alkaline media of the cement mixture where the pH is around 12.
A short description of series [1]: Dimerization of thiol monomers under oxidizing conditions, evaluated by reverse-phase HPLC. The settings on record: about 0.56 M thiol, 10% NaOH, 3.0% hydrogen peroxide. The format is physicochemical. Here is the method:
In this example, reference will be made to FIGS. 1 and 2. In this example, the role of thiol group was evaluated by oxidizing the monomers generating a dimer. About 10% by volume aqueous NaOH solution was added to about 0.56 M of mercapto (thiol) series (cysteine, cysteine methyl ester, beta-mercaptoethanol, and dithiothreitol), then a […] step was performed using about 3.0% by volume aqueous solution of hydrogen peroxide. Subsequently, centrifugation was performed at about 3000 rpm for about 5 minutes, then the supernatant was discarded and the pellets were recrystallized followed by rinsing with a few drops of cold water.
The dimerization process was evaluated using reverse-phase HPLC. For the analysis, about 5 μL injection volume was used. The mobile phase consisted of a mixture of acetonitrile and water in a ratio of about 65:35. […] Two distinct peaks were identified at distinct retention times.
The modification of the carboxylic group to a methyl ester increased the acidity of the ammonium protons relative to the thiol protons. […] The inhibitory effect of the ester group on disulfide bond formation was attributed to the presence of the methyl ester group in cysteine methyl ester.

For the molecule `O[C@H](CS)[C@H](O)CS` (racemic) [dithiothreitol], the pKa was 8.12 in “physchem” (pKa of the first SH) and 8.72 in “physchem” (pKa of the second SH).
As for `OCC(S)CS` (stereo not drawn) [2,3-disulfanylpropan-1-ol], the pKa was 15.8 in “physchem” (pKa of the OH), 8.95 in “physchem” (pKa of the primary SH) and 8.05 in the series “physchem” (pKa of the secondary SH).
`OCC(O)C(S)CS` (stereo not drawn) [3,4-disulfanylbutane-1,2-diol, 3,4-disulfanyl-butane-1,2-diol]: the pKa in the series “physchem” (pKa of the primary OH) was determined as 15.8; in “physchem” (pKa of the primary SH) it was 8.93; in the series “physchem” (pKa of the secondary OH), 14.3; in “physchem” (pKa of the secondary SH) it was 7.98.
With `COC(=O)[C@@H](N)CS` [cysteine methyl ester], the pKa in the series “physchem” worked out at 6.86; in the series “physchem” (pKa of the NH2), 7.93. Further, the “dimer (disulfide) formation on oxidation” value in series [1] is recorded as “unable to form a dimer”.
In the case of `N[C@@H](CS)C(=O)O` [cysteine], the values for the pKa in “physchem” (pKa of the COOH), in the series “physchem” (pKa of the NH2) and in the series “physchem” (pKa of the SH) were 2.35, 9.54 and 6.61, respectively. Besides, the “dimer (disulfide) formation on oxidation” value in series [1] was “successful formation of cysteine dimer”.
Consider β-mercapto ethanol [β-mercaptoethanol], for which, in “physchem”, the “pKa of the OH” value is reported as 16.25 and the “pKa of the SH” value came to 8.51.

Values taken from patent US20250214896A1, “THIOL / SULFIDE CONTAINING CONCRETE COMPOSITION” (Yarmouk University, priority 2024, published 2025).
